# According to BindingDB's records for patent US11078201 (Nimbus Saturn, 2021):
# Target: Mitogen-activated protein kinase kinase kinase kinase 1 (Homo sapiens, UniProt Q92918)
# Assay: Biochemical Enzyme Assay
# Method: HPK1 biochemical enzyme assay: HPK1 enzyme inhibition was measured using a microfluidic mobility shift assay. […] Test compounds were titrated in ten point curves (top final assay concentration […]), and preincubated with enzyme/substrate mix for 30 min prior to initiation of the reaction by addition of ATP (1 mM final concentration) and substrate (1 μM final concentration; Carna Biosciences) diluted in assay buffer supplemented by MgCl2 (final assay concentration of 5 mM). Following 60 min incubation at RT, the reaction was terminated by addition of 60 µl/well termination buffer (Carna Biosciences) and signal determination using a Caliper EZ Reader (Perkin Elmer, UK).
# Mitogen-activated protein kinase kinase kinase kinase 1, sequence (Q92918 whole entry): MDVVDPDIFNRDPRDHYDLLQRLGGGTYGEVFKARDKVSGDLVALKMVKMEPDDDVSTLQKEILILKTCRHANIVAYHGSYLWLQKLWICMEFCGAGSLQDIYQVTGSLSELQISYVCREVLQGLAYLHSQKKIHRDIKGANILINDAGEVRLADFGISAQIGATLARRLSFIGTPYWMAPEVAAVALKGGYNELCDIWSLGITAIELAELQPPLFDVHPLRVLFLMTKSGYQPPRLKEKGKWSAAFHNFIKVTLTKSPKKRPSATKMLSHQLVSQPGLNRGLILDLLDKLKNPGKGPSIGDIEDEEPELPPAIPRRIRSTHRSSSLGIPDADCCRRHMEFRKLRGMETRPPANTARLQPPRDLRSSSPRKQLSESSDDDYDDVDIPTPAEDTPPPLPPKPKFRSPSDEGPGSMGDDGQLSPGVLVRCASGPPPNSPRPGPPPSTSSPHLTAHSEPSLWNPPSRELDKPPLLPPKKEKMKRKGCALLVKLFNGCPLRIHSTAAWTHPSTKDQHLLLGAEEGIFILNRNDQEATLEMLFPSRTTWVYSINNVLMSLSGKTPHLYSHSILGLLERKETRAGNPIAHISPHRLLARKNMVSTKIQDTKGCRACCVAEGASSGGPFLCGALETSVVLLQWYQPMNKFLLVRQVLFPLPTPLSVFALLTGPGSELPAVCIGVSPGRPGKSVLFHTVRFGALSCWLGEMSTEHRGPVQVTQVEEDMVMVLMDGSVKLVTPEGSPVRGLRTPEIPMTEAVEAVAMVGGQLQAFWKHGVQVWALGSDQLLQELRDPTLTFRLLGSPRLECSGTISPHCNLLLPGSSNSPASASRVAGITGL
row,IC50 [nM],Compound
1,< 100,"CN(C)Cc1nc(Nc2ccc(-c3cnc4cc(F)ccn34)c3c2C(=O)NC3)ccc1C1CC[C@@H](F)[C@H](O)C1 (stereo partly specified) [US11078201, Compound I-700]"
2,< 100,"CN1CCN(C2=CNC(Nc3cnc(-c4c(-c5ccccc5)[nH]c5ccccc45)c4c3C(=O)NC4)C=C2)CC1 (stereo unspecified) [US11078201, Compound I-141]"
3,< 100,"CO[C@@H]1CN(c2ccc(Nc3ccc(-c4cnn5c4CCCC5)c4c3C(=O)NC4)nc2)[C@@H](CO)CO1 [US11078201, Compound I-571]"
4,< 100,"CN1C=CC2=C(c3ncc(Nc4cccc(N5CC[C@H]6CNC[C@H]65)n4)c4c3CNC4=O)C=CNC21 (stereo partly specified) [US11078201, Compound I-440]"
5,< 100,"CN[C@@H]1CCCN(c2ccc(Nc3ccc(-c4ccnc5c4c(C)cn5C)c4c3C(=O)NC4)nc2)C1 [US11078201, Compound I-100]"
6,< 100,"Cn1ccc2c(-c3ncc(NC4C=CC(C5CCOC5)=C(CN5CCCC5)N4)c4c3CNC4=O)ccnc21 (stereo unspecified) [US11078201, Compound I-552]"
7,< 100,"CN(C)Cc1nc(Nc2ccc(-c3cnc4cc(F)ccn34)c3c2C(=O)NC3)ccc1C1CC[C@H](F)[C@@H](O)C1 (stereo partly specified) [US11078201, Compound I-701]"
8,< 100,"O=C1NCc2c(-c3cnc4cc(F)ccn34)ccc(Nc3ccc(N4C[C@@H]5CC[C@@H](C5)C4)cn3)c21 [US11078201, Compound I-404]"
9,< 100,"O=C1NCc2c(-c3cnc4cc(F)ccn34)ccc(Nc3ccc(N4CC5CCC(C5)C4)cn3)c21 [US11078201, Compound I-405]"
10,< 100,"Cn1cnc2c(-c3ccc(Nc4ccc(N5CCNCC5)cn4)c4c3CNC4=O)ccnc21 [US11078201, Compound I-122]"
11,< 100,"O=C1NCc2c(-c3cnn4nccnc34)ccc(Nc3ccc(N4CCC(O)CC4)cn3)c21 [US11078201, Compound I-157]"
